Test system: 699152-130-R-J1-PDC complex spheroid growth
Test: Anticancer human tumor 699152-130-R-J1-PDC patient-derived pancreatic carcinoma cell line growth inhibition [AhR]
Conditions: for IC50: curve of first compound; for viability, T/C: stronger effect = lower value
From the text: Multicellular complex tumor spheroid response to aryl hydrocarbon receptor antagonists in combination with a variety of drugs and investigational agents in selected tumor cell lines
The current study was undertaken to assess response to aryl hydrocarbon receptor antagonists in combination with standard-of-care drugs and investigational agents in solid tumor complex spheroid models. Complex spheroids include a stromal component modeled by human endothelial cells (HUVEC) and fibroblasts modeled by human mesenchymal stem cells (MSCs). The concentration ranges selected for each drug and investigational agent were based upon clinically achievable concentrations if the clinical Cmax of the agent was known.
Compounds. The drugs and investigational agents: BAY 2416964 (NSC825713), GNF351 (NSC835774), CH-223191 (NSC835775), CPI-455 (NSC825282), aza-TdCyd (NSC777586), decitabine (NSC127716), belinostat (NSC758774), entinostat (NSC756642), pevonedistat (NSC761192), tazemetostat (NSC777109), talazoparib (NSC765396), olaparib (NSC753686), selinexor (NSC780203), nedisertib (M3814, NSC802822), bortezomib (NSC756655), venetoclax (NSC766270), doxorubicin (NSC123127), elimusertib (BAY189344, NSC800525), ceralasertib (AZD6738, NSC777638), TAK-243 (NSC785004), alisertib (NSC759677), etoposide (NSC141540), topotecan (NSC609699), eribulin (NSC707389), gemcitabine (NSC613327), carboplatin (NSC241240), cisplatin (NSC119875), and SN-38 (NSC673596) were obtained from the National Cancer Institute (NCI) Developmental Therapeutics Program Chemical Repository (32). The FDA-approved anticancer drug set is available from the Developmental Therapeutics Program at https://dtp.cancer.gov/organization/dscb/obtaining/available plates.htm. […] The stock solutions were prepared in dimethyl sulfoxide (DMSO, Sigma-Aldrich, St. Louis, MO, cat. D2650), except for the platinum compounds which were prepared in saline (Quality Biological, Gaithersburg, MD, cat. 114-055-101), at 800-fold the tested concentration and stored at -70 degrees C prior to their use. All drugs and investigational agents were tested over a range starting from a high concentration at or near the clinical Cmax and decreasing in half-log increments. If the clinical Cmax for an agent had not been determined, the highest concentration tested was 10 microM (Table 1).
Cell Culture. All cells were maintained in an incubator at 37 degrees C and 5% CO2 with 95% humidity. The PDC lines were cultured according to standard operating procedures established by the NCI PDMR (https://pdmr.cancer.gov). Briefly, all PDCs were thawed and cultured in Matrigel-coated flasks prepared with a working solution of 1X Ham's F-12 nutrient mix, without supplementation (Invitrogen, Waltham, MA, cat. 11765054), 100 U/mL penicillin-streptomycin (Invitrogen, cat. 15140122), and 2.5% Matrigel (Corning Inc., Corning, NY, cat. 354248) for the first three passages. All PDCs were cultured in complete DMEM/F-12 media containing advanced DMEM/F-12 (Invitrogen, cat. 12634028), 4.9% defined fetal bovine serum, heat inactivated (HyClone Laboratories Inc., Logan, UT, cat. SH30070.03HI), 389 ng/mL hydrocortisone (Sigma-Aldrich, cat. H4001), 9.7 ng/mL human EGF recombinant protein (Invitrogen, cat. PHG0313), 23.4 microg/mL adenine (Sigma-Aldrich, cat. A2786), 97.3 U/mL penicillin-streptomycin (Invitrogen, cat. 15140122), 1.9 mM L-glutamine (Invitrogen, cat. 25030081), and 9.7 microM Y-27632 dihydrochloride (Tocris Bioscience, Bristol, United Kingdom, cat. 1254). The PDCs were cultured in complete DMEM/F12 media without 10 microM Y-27632 dihydrochloride for at least two passages prior to the screen. The established cell lines NCI-H1341 and […] were cultured in DMEM/F-12, HEPES (Invitrogen, cat. 11330032), 5% defined fetal bovine serum (HyClone Laboratories Inc., cat. SH30070.03), ITS premix universal culture supplement [insulin (5 microg/mL), transferrin (5 microg/mL), and selenious acid (5 ng/mL)] […]

[1] = second compound 0.1 µM, first compound 0.00949 µM
[2] = second compound 0.1 µM, first compound 0.03 µM
[3] = second compound 0.1 µM, first compound 0.0949 µM
[4] = second compound 0.1 µM, first compound 0.3 µM
[5] = second compound 0.316 µM, first compound 0.00949 µM
[6] = second compound 0.316 µM, first compound 0.03 µM
[7] = second compound 0.316 µM, first compound 0.0949 µM
[8] = second compound 0.316 µM, first compound 0.3 µM
[9] = second compound 1 µM, first compound 0.00949 µM
[10] = second compound 1 µM, first compound 0.03 µM
[11] = second compound 1 µM, first compound 0.0949 µM
[12] = second compound 1 µM, first compound 0.3 µM
[13] = second compound 3.16 µM, first compound 0.00949 µM
[14] = second compound 3.16 µM, first compound 0.03 µM
[15] = second compound 3.16 µM, first compound 0.0949 µM
[16] = second compound 3.16 µM, first compound 0.3 µM
[17] = second compound 10 µM, first compound 0.00949 µM
[18] = second compound 10 µM, first compound 0.03 µM
[19] = second compound 10 µM, first compound 0.0949 µM
[20] = second compound 10 µM, first compound 0.3 µM
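Also: compound exposure lasted 7 days after spheroids had grown for 3 days.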

## CC1(C)CCC(CN2CCN(c3ccc(C(=O)NS(=O)(=O)c4ccc(NCC5CCOCC5)c([N+](=O)[O-])c4)c(Oc4cnc5[nH]ccc5c4)c3)CC2)=C(c2ccc(Cl)cc2)C1 + CC(CO)NC(=O)c1cc(-c2ccc(Cl)cc2)nn(-c2cnn(C)c2)c1=O
Second compound 0.1 µM
  IC50: > 10 µM
Second compound 0.316 µM
  IC50: > 10 µM
Second compound 1 µM
  IC50: > 10 µM
Second compound 3.16 µM
  IC50: > 10 µM
Second compound 10 µM
  IC50: > 10 µM
Second compound 0.1 µM, first compound 0.0316 µM
  viability, T/C: 102%
Second compound 0.1 µM, first compound 0.1 µM
  viability, T/C: 119%
Second compound 0.1 µM, first compound 0.316 µM
  viability, T/C: 95.8%
Second compound 0.1 µM, first compound 1 µM
  viability, T/C: 111%
Second compound 0.1 µM, first compound 3.16 µM
  viability, T/C: 89.1%
Second compound 0.1 µM, first compound 10 µM
  viability, T/C: 60.5%
Second compound 0.316 µM, first compound 0.0316 µM
  viability, T/C: 104%
Second compound 0.316 µM, first compound 0.1 µM
  viability, T/C: 109%
Second compound 0.316 µM, first compound 0.316 µM
  viability, T/C: 96.5%
Second compound 0.316 µM, first compound 1 µM
  viability, T/C: 92.2%
Second compound 0.316 µM, first compound 3.16 µM
  viability, T/C: 87.1%
Second compound 0.316 µM, first compound 10 µM
  viability, T/C: 63.1%
Second compound 1 µM, first compound 0.0316 µM
  viability, T/C: 96.2%
Second compound 1 µM, first compound 0.1 µM
  viability, T/C: 108%
Second compound 1 µM, first compound 0.316 µM
  viability, T/C: 105%
Second compound 1 µM, first compound 1 µM
  viability, T/C: 102%
Second compound 1 µM, first compound 3.16 µM
  viability, T/C: 95.4%
Second compound 1 µM, first compound 10 µM
  viability, T/C: 66%
Second compound 3.16 µM, first compound 0.0316 µM
  viability, T/C: 98%
Second compound 3.16 µM, first compound 0.1 µM
  viability, T/C: 100%
Second compound 3.16 µM, first compound 0.316 µM
  viability, T/C: 102%
Second compound 3.16 µM, first compound 1 µM
  viability, T/C: 83%
Second compound 3.16 µM, first compound 3.16 µM
  viability, T/C: 96.9%
Second compound 3.16 µM, first compound 10 µM
  viability, T/C: 65%
Second compound 10 µM, first compound 0.0316 µM
  viability, T/C: 90.8%
Second compound 10 µM, first compound 0.1 µM
  viability, T/C: 91.3%
Second compound 10 µM, first compound 0.316 µM
  viability, T/C: 97.5%
Second compound 10 µM, first compound 1 µM
  viability, T/C: 84.2%
Second compound 10 µM, first compound 3.16 µM
  viability, T/C: 84.4%
Second compound 10 µM, first compound 10 µM
  viability, T/C: 73.7%

## CCN(c1cc(-c2ccc(CN3CCOCC3)cc2)cc(C(=O)NCc2c(C)cc(C)[nH]c2=O)c1C)C1CCOCC1 + Cc1ccccc1N=Nc1ccc(NC(=O)c2ccnn2C)c(C)c1
Second compound 0.1 µM
  IC50: > 3 µM
Second compound 0.316 µM
  IC50: > 3 µM
Second compound 1 µM
  IC50: > 3 µM
Second compound 3.16 µM
  IC50: > 3 µM
Second compound 10 µM
  IC50: > 3 µM
[1]
  viability, T/C: 111%
[2]
  viability, T/C: 113%
[3]
  viability, T/C: 108%
[4]
  viability, T/C: 104%
Second compound 0.1 µM, first compound 0.949 µM
  viability, T/C: 109%
Second compound 0.1 µM, first compound 3 µM
  viability, T/C: 104%
[5]
  viability, T/C: 91.2%
[6]
  viability, T/C: 95.6%
[7]
  viability, T/C: 102%
[8]
  viability, T/C: 105%
Second compound 0.316 µM, first compound 0.949 µM
  viability, T/C: 109%
Second compound 0.316 µM, first compound 3 µM
  viability, T/C: 114%
[9]
  viability, T/C: 118%
[10]
  viability, T/C: 105%
[11]
  viability, T/C: 109%
[12]
  viability, T/C: 109%
Second compound 1 µM, first compound 0.949 µM
  viability, T/C: 90.8%
Second compound 1 µM, first compound 3 µM
  viability, T/C: 118%
[13]
  viability, T/C: 97.1%
[14]
  viability, T/C: 104%
[15]
  viability, T/C: 108%
[16]
  viability, T/C: 98.7%
Second compound 3.16 µM, first compound 0.949 µM
  viability, T/C: 99.7%
Second compound 3.16 µM, first compound 3 µM
  viability, T/C: 101%
[17]
  viability, T/C: 113%
[18]
  viability, T/C: 113%
[19]
  viability, T/C: 118%
[20]
  viability, T/C: 124%
Second compound 10 µM, first compound 0.949 µM
  viability, T/C: 127%
Second compound 10 µM, first compound 3 µM
  viability, T/C: 113%

## Nc1ncn(C2CC(O)C(CO)S2)c(=O)n1 (stereo not given) + Cc1cncc(-c2nc(NCCc3c[nH]c4ccccc34)c3ncn(C(C)C)c3n2)c1
Second compound 0.1 µM
  IC50: > 0.3 µM
Second compound 0.316 µM
  IC50: > 0.3 µM
Second compound 1 µM
  IC50: > 0.3 µM
Second compound 3.16 µM
  IC50: > 0.3 µM
Second compound 10 µM
  IC50: < 0.000949 µM
Second compound 0.1 µM, first compound 0.000949 µM
  viability, T/C: 105%
Second compound 0.1 µM, first compound 0.003 µM
  viability, T/C: 93.8%
[1]
  viability, T/C: 99.9%
[2]
  viability, T/C: 99.5%
[3]
  viability, T/C: 90.8%
[4]
  viability, T/C: 91.4%
Second compound 0.316 µM, first compound 0.000949 µM
  viability, T/C: 112%
Second compound 0.316 µM, first compound 0.003 µM
  viability, T/C: 95.9%
[5]
  viability, T/C: 97%
[6]
  viability, T/C: 103%
[7]
  viability, T/C: 101%
[8]
  viability, T/C: 107%
Second compound 1 µM, first compound 0.000949 µM
  viability, T/C: 126%
Second compound 1 µM, first compound 0.003 µM
  viability, T/C: 110%
[9]
  viability, T/C: 106%
[10]
  viability, T/C: 110%
[11]
  viability, T/C: 113%
[12]
  viability, T/C: 111%
Second compound 3.16 µM, first compound 0.000949 µM
  viability, T/C: 91.6%
Second compound 3.16 µM, first compound 0.003 µM
  viability, T/C: 88.8%
[13]
  viability, T/C: 95.1%
[14]
  viability, T/C: 94.6%
[15]
  viability, T/C: 107%
[16]
  viability, T/C: 104%
Second compound 10 µM, first compound 0.000949 µM
  viability, T/C: 23.9%
Second compound 10 µM, first compound 0.003 µM
  viability, T/C: 21%
[17]
  viability, T/C: 22.8%
[18]
  viability, T/C: 22.5%
[19]
  viability, T/C: 19.6%
[20]
  viability, T/C: 20.4%
